Measurements published in PMC12750218 (ACS Omega, 2025).

What was measured:
[1] = test system: human α1-acid glycoprotein (AGP); test: HPLC on chiral AGP column (immobilized protein): retention factors and estimated bound percentage; type: binding; settings: for Bound percentage (b%): from ln k extrapolated to zero organic modifier, b%=100×k/(1+k); for retention factor (k): chiral AGP column, 2-propanol modifier
Method: In this study, AGP was used as the chiral selector. […]
HPLC columns with immobilized proteins can also be used to estimate the percentage of the drug bound to the protein. […] Extrapolating this relationship to a zero organic modifier approximates physiological conditions. The intercept of the regression lines was used to calculate protein binding percentages based on eq .
LC-UV analysis was conducted on an Agilent 1100 HPLC system that included a quaternary pump, an autosampler, a column compartment, and a DAD detector (Agilent Technologies, Waldbronn, Germany). Data analysis was performed with ChemStation software (version: B04.03-SP2). UV detection was set at 230 nm. Stock solutions were prepared in methanol at a concentration of 1 mg/mL (2.17 mM), and further dilutions were made by using deionized water. Samples were prepared to contain 0.1 mg/mL (0.217 mM) R-APR and 0.2 mg/mL (0.434 mM) S-APR, with each analysis performed using a 5 μL injection volume. […] Chromatographic data were evaluated according to standard calculation methods. The retention factor (k) for each enantiomer was determined using the following equation: k=(tr−t0)/t0 1 where tr denotes the retention time of the target enantiomer and t0 represents the column dead time.
Additionally, the retention factor was used to estimate the percentage of protein-bound analytes according to the following formula: b%=100×k/(1+k) 2 Three parallel measurements were performed for each case.

[2] = test system: human α1-acid glycoprotein (AGP); test: Isothermal titration calorimetry of AGP with APR enantiomers; type: binding; settings: ITC, aqueous 5% DMSO, 25 °C; for Standard entropy (ΔS) of binding: calculated from ΔG=ΔH−TΔS; for Standard Gibbs free energy (ΔG) of binding: calculated from −RTlnK
Method: The working cell contained 1427.5 μL of AGP solution, which was titrated with 5 μL aliquots of the APR solution from the syringe, up to a total volume of 275 μL. The reference cell was filled with aqueous 5% DMSO. Each injection lasted 10 s, with a 1000 s interval between injections. The stirring speed was maintained at 307 rpm.
The resulting isotherm was next fitted with the nonlinear multiparameter regression method (Origin 7.0 MicroCal) using the One Set of Sites model, which assumes that a receptor (macromolecule) has a single class of multiple independent binding sites for a ligand. In this model, each site has the same affinity and thermodynamics for the ligand, and the binding of one ligand molecule to a site is independent of the binding events at other sites. […] The standard Gibbs free energy of binding ΔG and standard entropy of binding ΔS can be next calculated using the basic thermodynamic relationship ΔG=ΔH−TΔS=−RTln⁡K where T is temperature and R is the gas constant.

[3] = test system: human α1-acid glycoprotein (AGP); test: Ultracentrifugation, free APR in supernatant by HPLC-UV; settings: isolated human α1-acid glycoprotein (AGP) in PBS, 5 μM APR, 5-15 μM AGP, PBS pH 7.4, 20 °C, 1:1 stoichiometry, K in L mol^–1, read-out: binding (stability) constant log K (converted)
Method: The interaction of S-APR and R-APR with AGP was also examined with ultracentrifugation, where increasing protein levels (final concentrations: 0, 5, 10, and 15 μM) were added to a standard amount of the ligand (5 μM) in PBS (pH 7.4). These samples (600 μL) were centrifuged for 16 h at 170,000g and 20 °C employing an Optima MAX-XP ultracentrifuge (Beckman Coulter, Brea, CA, USA). Using these experimental conditions, the protein is slowly sedimented without the disruption of ligand–protein interactions. − , Thereafter, the unbound free fraction of APR was directly quantified in the protein-free supernatants by the HPLC-UV method (see the next paragraph). Binding (association) constants (K; unit: L mol^–1) of APR–AGP complexes were calculated assuming a 1:1 stoichiometry of complex formation: , K=([APR−AGP])/([APR]×[AGP]) 3 where [APR] is the molar concentration of the unbound free ligand, [AGP] is the molar concentration of the unbound free protein, and [APR–AGP] indicates the molar concentration of the ligand–protein complex.
The APR concentration after centrifugation was measured by a validated HPLC-UV method using an XTERRA RP18 column (5 μm, 4.6 × 100 mm), maintained at 40 °C. Isocratic elution was applied using acetonitrile and water containing 0.5% formic acid (60:40, v/v) as the mobile phase. […] The concentration was determined by using the external standard method. […]

[4] = test system: human serum albumin (HSA); parameters: method as in number not printed (authors' recent work, Dombi et al., 2023); settings: binding to HSA; ref number not printed (authors' recent work, Dombi et al., 2023); cited from earlier work
[5] = test system: mouse plasma proteins; parameters: method as in public assessment report of Otezla (CHMP, 2014); settings: 0.25 to 2.5 μg/mL, ref public assessment report of Otezla (CHMP, 2014); cited from earlier work
[6] = test system: rat plasma proteins; parameters: method as in public assessment report of Otezla (CHMP, 2014); settings: 0.25 to 2.5 μg/mL, ref public assessment report of Otezla (CHMP, 2014); cited from earlier work
[7] = test system: rabbit plasma proteins; parameters: method as in public assessment report of Otezla (CHMP, 2014); settings: 0.25 to 2.5 μg/mL, ref public assessment report of Otezla (CHMP, 2014); cited from earlier work
[8] = test system: monkey plasma proteins; parameters: method as in public assessment report of Otezla (CHMP, 2014); settings: 0.25 to 2.5 μg/mL, ref public assessment report of Otezla (CHMP, 2014); cited from earlier work
[9] = test system: human plasma proteins; parameters: method as in public assessment report of Otezla (CHMP, 2014); settings: 0.25 to 2.5 μg/mL, ref public assessment report of Otezla (CHMP, 2014); cited from earlier work
[10] = 25 °C, sodium phosphate buffer 10 mM pH 7.0, 95% in eluent
[11] = ammonium acetate buffer 10 mM pH 7.0, 85% in eluent
[12] = ammonium acetate buffer 10 mM pH 7.0, 90% in eluent
[13] = ammonium acetate buffer 10 mM pH 7.0, 92.5% in eluent
[14] = ammonium acetate buffer 10 mM pH 7.0, 95% in eluent
[15] = ammonium bicarbonate buffer 10 mM pH 7.0, 85% in eluent
[16] = ammonium bicarbonate buffer 10 mM pH 7.0, 90% in eluent
[17] = ammonium bicarbonate buffer 10 mM pH 7.0, 92.5% in eluent
[18] = ammonium bicarbonate buffer 10 mM pH 7.0, 95% in eluent
[19] = sodium phosphate buffer 10 mM pH 7.0, 85% in eluent
[20] = sodium phosphate buffer 10 mM pH 7.0, 90% in eluent
[21] = sodium phosphate buffer 10 mM pH 7.0, 92.5% in eluent

SMILES	Bound percentage (b%) ([1]; ammonium acetate buffer)	Bound percentage (b%) ([1]; ammonium bicarbonate buffer)	retention factor (k) [1, 10]	retention factor (k) [1, 11]	retention factor (k) [1, 12]	retention factor (k) [1, 13]	retention factor (k) [1, 14]	retention factor (k) [1, 15]	retention factor (k) [1, 16]	retention factor (k) [1, 17]	retention factor (k) [1, 18]	retention factor (k) [1, 19]	retention factor (k) [1, 20]	retention factor (k) [1, 21]	Bound percentage (b%) ([1]; sodium phosphate buffer)	Standard enthalpy (ΔH) of binding [2]	Standard entropy (ΔS) of binding [2]	Standard Gibbs free energy (ΔG) of binding [2]	Kd at 16 h, 5 µM [3]	Stability constant (log K), HSA [4]	other results
CCOc1cc([C@H](CS(C)(=O)=O)N2C(=O)c3cccc(NC(C)=O)c3C2=O)ccc1OC [R-APR, apremilast]	98.37%	99.19%	3.99 ± 0.02	0.33 ± 0.01	0.90 ± 0.01	1.51 ± 0.03	3.29 ± 0.02	0.32 ± 0.01	0.94 ± 0.01	1.62 ± 0.01	3.59 ± 0.02	0.34 ± 0.01	0.98 ± 0.01	1.69 ± 0.01	99.31%	–3.40 ± 0.26 kcal mol^–1	13.7 ± 1.5 cal K^–1 mol^–1	–7.48 ± 0.18 kcal mol^–1	2.29 µM	3.81 ± 0.05	
CCOc1cc([C@@H](CS(C)(=O)=O)N2C(=O)c3cccc(NC(C)=O)c3C2=O)ccc1OC [S-APR, apremilast]	99.01%	99.54%	5.05 ± 0.03	0.33 ± 0.01	0.90 ± 0.01	1.72 ± 0.03	4.07 ± 0.02	0.32 ± 0.01	0.94 ± 0.01	1.89 ± 0.01	4.44 ± 0.02	0.34 ± 0.01	0.98 ± 0.01	2.00 ± 0.01	99.63%	–4.80 ± 0.27 kcal mol^–1	9.3 ± 1.3 cal K^–1 mol^–1	–7.57 ± 0.12 kcal mol^–1	1.7 µM	4.02 ± 0.08	
CCOc1cc([C@@H](CS(C)(=O)=O)N2C(=O)c3cccc(NC(C)=O)c3C2=O)ccc1OC [APR, Apremilast]																					average percentage bound to plasma proteins [5]: 88.6%; average percentage bound to plasma proteins [6]: 90.6%; average percentage bound to plasma proteins [7]: 80.9%; average percentage bound to plasma proteins [8]: 84.3%; average percentage bound to plasma proteins [9]: 68.3%
